Assay results from US8071586B2, “Heterocyclyl compounds” (Hoffmann-La Roche Inc., priority 2008, dated 2011).

Molecular target: T1, human chemokine receptor 2 isoform B (CCR2) (Homo sapiens, UniProt P41597)
T1 sequence (P41597 1-360 isoform P41597-2): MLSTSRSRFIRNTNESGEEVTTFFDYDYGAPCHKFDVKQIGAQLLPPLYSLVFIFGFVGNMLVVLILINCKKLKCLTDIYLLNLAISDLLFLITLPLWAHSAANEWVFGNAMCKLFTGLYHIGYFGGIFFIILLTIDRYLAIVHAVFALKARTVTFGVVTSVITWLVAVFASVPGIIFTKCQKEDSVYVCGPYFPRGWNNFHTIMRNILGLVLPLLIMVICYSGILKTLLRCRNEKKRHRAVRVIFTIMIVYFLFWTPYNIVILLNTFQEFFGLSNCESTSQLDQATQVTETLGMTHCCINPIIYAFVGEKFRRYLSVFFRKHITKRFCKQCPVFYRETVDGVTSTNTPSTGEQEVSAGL
Assay: Calcium mobilization assay (FLIPR, MCP-1 stimulated CHOK1-CCR2B-A5 cells)
Format: cell-based
Settings: Ca mobilisation assay, CCR2 antagonist activity, inhibition of MCP-1 induced calcium increase
Procedure: Calcium Mobilization Assay
CHOK1-CCR2B-A5 cells (from Euroscreen) stably overexpressing the human chemokine receptor 2 isoform B were cultured in Nutrient Hams F12 medium supplemented with 5% FBS, 100 U/ml penicillin, 100 μg/ml streptomycin, 400 μg/ml G418 and 5 μg/ml puromycin.
For the assay cells were grown overnight in 384-well black clear flat bottom polystyrene plates (Costar) at 37° C. at 5% CO2. After washing with DMEM, 20 mM Hepes, 2.5 mM probenecid, 0.1% BSA (DMEM assay buffer) cells were loaded with 4 μM Fluo-4 in the same DMEM assay buffer for 2 hours at 30° C. Excess dye was removed and cells were washed with DMEM assay buffer. 384-well compound plates were prepared with DMEM assay buffer/0.5% DMSO with or without various concentrations of test compounds. Usually compounds were tested for agonist and antagonist activity.
Test compounds were added to the assay plate and agonist activity was monitored as fluorescence for 80 seconds with a FLIPR (488 nm excitation; 510-570 nm emission; Molecular Devices). After 20-30 min. of incubation at 30° C., […] MCP-1 (R&D; Roche) was added and fluorescence was monitored again for 80 seconds. Increases in intracellular calcium are reported as maximum fluorescence after agonist exposure minus basal fluorescence before exposure. Antagonist activity is indicated as inhibitor concentration required for 50% inhibition of specific calcium increases.

| SMILES | IC50 [nM] |
| --- | --- |
| C[C@H]1C(=O)N(CCCCN2CCC3(CC3)[C@H](O)C2)CCN1C(=O)Nc1ccc(C(F)(F)F)cn1 [Example 99, (S)-4-[4-((S)-4-Hydroxy-6-aza-spiro[2.5]oct-6-yl)-butyl]-2-methyl-3-oxo-piperazine-1-carboxylic acid (5-trifluoromethyl-pyridin-2-yl)-amide] | 24 |
| C[C@H]1C(=O)N(CCCN2CCC3(CC3)[C@H](O)C2)CCN1C(=O)Nc1cccc(F)c1 [Example 73, (S)-4-[3-((S)-4-Hydroxy-6-aza-spiro[2.5]oct-6-yl)-propyl]-2-methyl-3-oxo-piperazine-1-carboxylic acid (3-fluoro-phenyl)-amide] | 21 |
| COCC(CCN1CCC2(CC2)[C@H](O)C1)N1CC(C)N(C(=O)Nc2ccc(Cl)c(Cl)c2)CCC1=O (stereo in doubt) [Example 68, (R)-4-[(S)-3-((S)-4-Hydroxy-6-aza-spiro[2.5]oct-6-yl)-1-methoxymethyl-propyl]-2-methyl-5-oxo-[1,4]diazepane-1-carboxylic acid (3,4-dichloro-phenyl)-amide] | 3 |
| O=C(Nc1cccc(Cl)c1)N1CCC(=O)N(C(CO)CCN2CCC3(CC3)[C@H](O)C2)CC1 (stereo partly drawn) [Example 2, (R,S)-4-[3-((S)-4-Hydroxy-6-aza-spiro[2.5]oct-6-yl)-1-hydroxymethyl-propyl]-5-oxo-[1,4]diazepane-1-carboxylic acid (3-chloro-phenyl)-amide] | 40 |
| C[C@H]1C(=O)N(CCCN2CCCCC2)CCN1C(=O)Nc1cccc(Cl)c1 [Example 35, (S)-2-Methyl-3-oxo-4-(3-piperidin-1-yl-propyl)-piperazine-1-carboxylic acid (3-chloro-phenyl)-amide] | 940 |
| C[C@H]1C(=O)N(CCCN2CCC[C@@H](O)C2)CCN1C(=O)Nc1ccc(Cl)c(Cl)c1 [Example 48, (S)-4-[3-((R)-3-Hydroxy-piperidin-1-yl)-propyl]-2-methyl-3-oxo-piperazine-1-carboxylic acid (3,4-dichloro-phenyl)-amide] | 370 |
| O=S1(=O)CCN(C(=S)Nc2ccc(Cl)c(Cl)c2)CCN1CCCN1CCCCC1 [Example 22, 1,1-Dioxo-2-(3-piperidin-1-yl-propyl)-[1,2,5]thiadiazepane-5-carbothioic acid (3,4-dichloro-phenyl)-amide] | 770 |
| C[C@H]1C(=O)N(CCCN2CCCCC2)CCN1C(=O)Nc1cccc(-c2ccccc2)c1 [Example 43, (S)-2-Methyl-3-oxo-4-(3-piperidin-1-yl-propyl)-piperazine-1-carboxylic acid biphenyl-3-ylamide] | 610 |
| COC(=O)[C@H](CCN1CCC2(CC2)[C@H](O)C1)N1C[C@@H](C)N(C(=O)Nc2cccc(Cl)c2)CCC1=O [Example 62, (S)-2-[(R)-4-(3-Chloro-phenylcarbamoyl)-3-methyl-7-oxo-[1,4]diazepan-1-yl]-4-((S)-4-hydroxy-6-aza-spiro[2.5]oct-6-yl)-butyric acid methyl ester] | 30 |
| C[C@H]1C(=O)N(CCCN2CCC3(CC3)[C@H](O)C2)CCN1C(=O)Nc1ccc(Cl)cc1 [Example 72, (S)-4-[3-((S)-4-Hydroxy-6-aza-spiro[2.5]oct-6-yl)-propyl]-2-methyl-3-oxo-piperazine-1-carboxylic acid (4-chloro-phenyl)-amide] | 8 |
| C[C@H]1C(=O)N([C@H](CO)CCN2CCC3(CC3)[C@H](O)C2)CCN1C(=O)Nc1ccc(Cl)c(Cl)c1 [Example 106, (S)-4-[(S)-3-((S)-4-Hydroxy-6-aza-spiro[2.5]oct-6-yl)-1-hydroxymethyl-propyl]-2-methyl-3-oxo-piperazine-1-carboxylic acid (3,4-dichloro-phenyl)-amide] | 1 |
| C[C@H]1C(=O)N([C@@H](CCN2CCC3(CC3)[C@H](O)C2)COC(=O)c2ccccc2)CCN1C(=O)Nc1ccc(Cl)c(Cl)c1 [Example 118, Benzoic acid (S)-2-[(S)-4-(3,4-dichloro-phenylcarbamoyl)-3-methyl-2-oxo-piperazin-1-yl]-4-((S)-4-hydroxy-6-aza-spiro[2.5]oct-6-yl)-butyl ester] | 3 |
| COC[C@@H](CCN1CCC2(CC2)[C@H](O)C1)N1CCN(C(=O)Nc2ccc(Cl)c(Cl)c2)CCC1=O [Example 57, 4-[(R)-3-((S)-4-hydroxy-6-aza-spiro[2.5]oct-6-yl)-1-methoxymethyl-propyl]-5-oxo-[1,4]diazepane-1-carboxylic acid (3,4-dichloro-phenyl)-amide] | 240 |
| C[C@H]1C(=O)N(CCCCN2CCC3(CC3)[C@H](O)C2)CCN1C(=O)Nc1cccc(C(F)(F)F)n1 [Example 101, (S)-4-[4-((S)-4-Hydroxy-6-aza-spiro[2.5]oct-6-yl)-butyl]-2-methyl-3-oxo-piperazine-1-carboxylic acid (6-trifluoromethyl-pyridin-2-yl)-amide] | 316 |
| C[C@H]1C(=O)N(C[C@H](O)CN2CCC3(CC3)[C@H](O)C2)CCN1C(=O)Nc1ccc(Cl)c(Cl)c1 [Example 122, (S)-4-[(R)-2-Hydroxy-3-((S)-4-hydroxy-6-aza-spiro[2.5]oct-6-yl)-propyl]-2-methyl-3-oxo-piperazine-1-carboxylic acid (3,4-dichloro-phenyl)-amide] | 23 |
| O=C(Nc1cccc(Cl)c1)N1CCC(=O)N([C@H](CO)CCN2CCC3(CC3)[C@H](O)C2)CC1 [Example 4, 4-[(S)-3-((S)-4-Hydroxy-6-aza-spiro[2.5]oct-6-yl)-1-hydroxymethyl-propyl]-5-oxo-[1,4]diazepane-1-carboxylic acid (3-chloro-phenyl)-amide] | 10 |
| C[C@H]1C(=O)N(C[C@@H](O)CN2CCC3(CC3)[C@H](O)C2)CCN1C(=O)Nc1cccc(Cl)c1 [Example 121, (S)-4-[(S)-2-Hydroxy-3-((S)-4-hydroxy-6-aza-spiro[2.5]oct-6-yl)-propyl]-2-methyl-3-oxo-piperazine-1-carboxylic acid (3-chloro-phenyl)-amide] | 6 |
| CCCCCC(=O)OC[C@H](CCN1CCC2(CC2)[C@H](O)C1)N1CCN(C(=O)Nc2ccc(Cl)c(Cl)c2)[C@@H](C)C1=O [Example 116, Hexanoic acid (S)-2-[(S)-4-(3,4-dichloro-phenylcarbamoyl)-3-methyl-2-oxo-piperazin-1-yl]-4-((S)-4-hydroxy-6-aza-spiro[2.5]oct-6-yl)-butyl ester] | 5 |
| C[C@H]1C(=O)N([C@H](CO)CCN2CCC3(CC3)[C@H](O)C2)CCN1C(=O)Nc1cccc(Cl)c1 [Example 107, (S)-4-[(S)-3-((S)-4-Hydroxy-6-aza-spiro[2.5]oct-6-yl)-1-hydroxymethyl-propyl]-2-methyl-3-oxo-piperazine-1-carboxylic acid (3-chloro-phenyl)-amide] | 2 |
| C[C@@H]1CN(CCCN2CCC3(CC3)[C@H](O)C2)C(=O)CCN1C(=O)Nc1cccc(Cl)c1 [Example 60, (R)-4-[3-((S)-4-Hydroxy-6-aza-spiro[2.5]oct-6-yl)-propyl]-2-methyl-5-oxo-[1,4]diazepane-1-carboxylic acid (3-chloro-phenyl)-amide] | 60 |
| COC[C@H](CCN1CCC2(CC2)[C@H](O)C1)N1CCN(C(=O)Nc2ccc(F)c(Cl)c2)[C@@H](C)C1=O [Example 79, (S)-4-[(S)-3-((S)-4-Hydroxy-6-aza-spiro[2.5]oct-6-yl)-1-methoxymethyl-propyl]-2-methyl-3-oxo-piperazine-1-carboxylic acid (3-chloro-4-fluoro-phenyl)-amide] | 3 |
| C[C@H]1C(=O)N(CCCN2CCC3(CC3)[C@H](O)C2)CCN1C(=S)Nc1ccc(Cl)c(Cl)c1 [Example 71, (S)-4-[3-((S)-4-Hydroxy-6-aza-spiro[2.5]oct-6-yl)-propyl]-2-methyl-3-oxo-piperazine-1-carbothioic acid (3,4-dichloro-phenyl)-amide] | 2 |
| C[C@H]1C(=O)N(CCCN2CCCCC2)CCN1C(=O)Nc1ccc(F)c(Cl)c1 [Example 42, (S)-2-Methyl-3-oxo-4-(3-piperidin-1-yl-propyl)-piperazine-1-carboxylic acid (3-chloro-4-fluoro-phenyl)-amide] | 110 |
| C[C@H]1C(=O)N(CCCN2CCCCC2)CCN1C(=O)Nc1ccc2ccccc2c1 [Example 40, (S)-2-Methyl-3-oxo-4-(3-piperidin-1-yl-propyl)-piperazine-1-carboxylic acid naphthalen-2-ylamide] | 360 |
| CN(C)C(=O)C(CCN1CCC2(CC2)[C@H](O)C1)N1CCN(C(=O)Nc2cccc(Cl)c2)CCC1=O (stereo partly drawn) [Example 10, (R,S)-4-[1-Dimethylcarbamoyl-3-((S)-4-hydroxy-6-aza-spiro[2.5]oct-6-yl)-propyl]-5-oxo-[1,4]diazepane-1-carboxylic acid (3-chloro-phenyl)-amide] | 780 |
